Data on 29 molecules can be found in patent publication US20250171437A1 (Agios Pharmaceuticals,Inc., priority 2022, published 2025).

Where only a bound is given, the exact number is not on record here.

For the test, the target named is T1, human PAH with the R408W mutation (A375 R408W cells) (Homo sapiens, UniProt P00439, R408W).
T1 construct: expressed in transfected cells
T1 sequence (P00439 1-452 R408W): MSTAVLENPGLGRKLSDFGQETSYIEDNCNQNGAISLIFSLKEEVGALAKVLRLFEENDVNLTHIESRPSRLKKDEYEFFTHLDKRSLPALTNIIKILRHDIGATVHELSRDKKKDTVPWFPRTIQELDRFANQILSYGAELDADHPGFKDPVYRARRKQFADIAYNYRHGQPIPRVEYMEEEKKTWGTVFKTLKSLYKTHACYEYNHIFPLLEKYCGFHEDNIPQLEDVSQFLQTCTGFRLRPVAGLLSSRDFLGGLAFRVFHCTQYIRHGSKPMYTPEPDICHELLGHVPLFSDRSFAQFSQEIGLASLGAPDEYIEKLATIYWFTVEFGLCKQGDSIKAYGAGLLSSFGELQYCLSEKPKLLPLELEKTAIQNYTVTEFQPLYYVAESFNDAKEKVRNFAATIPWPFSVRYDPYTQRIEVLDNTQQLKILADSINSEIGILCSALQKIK
Nature of the test: Cell Based Phenylalanine Flux Assay. The settings on record: 24 hrs with compound, then 20 μM sepiapterin and 800 μM 13C9,15N-Phenylalanine for 4 hours, 13C-Tyrosine by LC-MS, average where tested multiple times. The essentials:
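Stable R408W PAH A375 cells: 24 h compound pretreatment in duplicate, then 4 h with 800 μM isotope-labelled Phe and 20 μM sepiapterin. Labelled Tyr output by LC-MS; AC50 averaged where repeated.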

Where [1] appears, read: A375 cells expressing R408W PAH.

In the case of `O=C(c1nnc(-c2ccc(C(F)(F)F)cc2)o1)N1CCc2[nH]cnc2[C@@H]1c1nc2cc(F)ccc2o1` [Example 89, (R)-(4-(5-fluorobenzo[d]oxazol-2-yl)-6,7-dihydro-1H-imidazo[4,5-c]pyridin-5(4H)-yl)(5-(4-(trifluoromethyl)phenyl)-1,3,4-oxadiazol-2-yl)methanone], the concentration at half-maximal activity (AC50) (A375 R408W cells) was in the range of 1000 to 5000 nM.

In the case of `O=C(c1nnc(-c2ncccc2F)o1)N1CCc2[nH]cnc2[C@@H]1c1nc2ccccc2o1` [Example 834, (R)-(4-(benzo[d]oxazol-2-yl)-6,7-dihydro-1H-imidazo[4,5-c]pyridin-5(4H)-yl)(5-(3-fluoropyridin-2-yl)-1,3,4-oxadiazol-2-yl)methanone], the concentration at half-maximal activity (AC50) (A375 R408W cells) was 500 to 1000 nM. The same measure, in the same setting: as for `O=C(c1nnc(-c2ccccn2)o1)N1CCc2[nH]cnc2[C@@H]1c1nc2c(F)cccc2o1` [Example 334, (R)-(4-(4-fluorobenzo[d]oxazol-2-yl)-6,7-dihydro-1H-imidazo[4,5-c]pyridin-5(4H)-yl)(5-(pyridin-2-yl)-1,3,4-oxadiazol-2-yl)methanone], the figure is 1000 to 5000 nM; as for `O=C(c1oc(C2(O)CCC2)nc1C(F)(F)F)N1CCc2[nH]cnc2[C@@H]1c1nc2cc(F)ccc2o1` [Example 586, (R)-(4-(5-fluorobenzo[d]oxazol-2-yl)-6,7-dihydro-1H-imidazo[4,5-c]pyridin-5(4H)-yl)(2-(1-hydroxycyclobutyl)-4-(trifluoromethyl)oxazol-5-yl)methanone], 1000 to 5000 nM; as for `Cn1ccc(-c2nnc(C(=O)N3CCc4[nH]cnc4[C@H]3c3nc4c(F)ccc(F)c4o3)o2)n1` [Example 813], at most 500 nM.

In the case of `Cn1cc(-c2ccc3c(C(=O)N4CCc5[nH]cnc5[C@@H]4c4nc5cc(F)ccc5o4)cnn3c2)cn1` [Example 72, (R)-(4-(5-fluorobenzo[d]oxazol-2-yl)-6,7-dihydro-1H-imidazo[4,5-c]pyridin-5(4H)-yl)(6-(1-methyl-1H-pyrazol-4-yl)pyrazolo[1,5-a]pyridin-3-yl)methanone], the AC50 (A375 R408W cells) was at least 5000 nM. As to `Cc1nc([C@H](C)O)oc1C(=O)N1CCc2[nH]cnc2[C@@H]1c1nc2cccc(F)c2o1` [Example 248, ((R)-4-(7-fluorobenzo[d]oxazol-2-yl)-6,7-dihydro-1H-imidazo[4,5-c]pyridin-5(4H)-yl)(2-((S)-1-hydroxyethyl)-4-methyloxazol-5-yl)methanone], the half-maximal activity concentration (AC50) (A375 R408W cells) lay in the range of 1000 to 5000 nM. With `O=C(C1CC1)N1CCc2[nH]cnc2C1c1nc2cc(F)ccc2o1` (centres unmarked), the AC50 under setting [1] lay in the range of 1000 to 5000 nM. Turning to `C[C@@H](O)c1nc(C(F)F)c(C(=O)N2CCc3[nH]cnc3[C@@H]2c2nc3ccc(F)cc3o2)o1` [Example 240, (4-(difluoromethyl)-2-((R)-1-hydroxyethyl)oxazol-5-yl)((R)-4-(6-fluorobenzo[d]oxazol-2-yl)-6,7-dihydro-1H-imidazo[4,5-c]pyridin-5(4H)-yl)methanone], the AC50 (A375 R408W cells) lay in the range of 1000 to 5000 nM.

In the case of `CC(C)(O)c1nc(C(F)F)c(C(=O)N2CCc3[nH]cnc3C2c2nc3cc(F)c(F)cc3o2)o1` (centres unmarked), under setting [1], the AC50 lay within 1000 to 5000 nM. With `Cc1cccc2oc([C@H]3c4nc[nH]c4CCN3C(=O)c3cnn4cc(N5CCC(O)CC5)ccc34)nc12` [Example 702, (R)-(6-(4-hydroxypiperidin-1-yl)pyrazolo[1,5-a]pyridin-3-yl)(4-(4-methylbenzo[d]oxazol-2-yl)-6,7-dihydro-1H-imidazo[4,5-c]pyridin-5(4H)-yl)methanone], where the note is “A375 R408W cells”, the half-maximal activity concentration (AC50) is at least 5000 nM. Take `O=C(c1ccn(CC(F)F)n1)N1CCc2[nH]cnc2C1c1nc2ccccc2o1` (centres unmarked): under setting [1], the half-maximal activity concentration (AC50) lay within 1000 to 5000 nM.

Regarding `Cc1cccc2nc([C@H]3c4nc[nH]c4CCN3C(=O)c3ocnc3C(F)F)oc12` [Example 394, (R)-(4-(difluoromethyl)oxazol-5-yl)(4-(7-methylbenzo[d]oxazol-2-yl)-6,7-dihydro-1H-imidazo[4,5-c]pyridin-5(4H)-yl)methanone], the AC50 (A375 R408W cells) was in the range of 500 to 1000 nM. Regarding `Cn1cc(-c2ccc3c(C(=O)N4CCc5[nH]cnc5[C@H]4c4nc5c(F)cccc5o4)cnn3c2)cn1` [Example 541, (S)-(4-(4-fluorobenzo[d]oxazol-2-yl)-6,7-dihydro-1H-imidazo[4,5-c]pyridin-5(4H)-yl)(6-(1-methyl-1H-pyrazol-4-yl)pyrazolo[1,5-a]pyridin-3-yl)methanone], where the note is “A375 R408W cells”, the half-maximal activity concentration (AC50) is at most 500 nM. Still for that read-out and setting: the figure for `O=C(c1nnc(C2CC2)o1)N1CCc2[nH]cnc2[C@@H]1c1nc2c(F)ccc(F)c2o1` [Example 856, (R)-(5-cyclopropyl-1,3,4-oxadiazol-2-yl)(4-(4,7-difluorobenzo[d]oxazol-2-yl)-6,7-dihydro-1H-imidazo[4,5-c]pyridin-5(4H)-yl)methanone] is 500 to 1000 nM; for `Cc1nc([C@@H](C)O)oc1C(=O)N1CCc2[nH]cnc2[C@@H]1c1nc2c(F)cccc2o1` [Example 209, ((R)-4-(4-fluorobenzo[d]oxazol-2-yl)-6,7-dihydro-1H-imidazo[4,5-c]pyridin-5(4H)-yl)(2-((R)-1-hydroxyethyl)-4-methyloxazol-5-yl)methanone] it is at least 5000 nM; for `O=C(c1nnc(-c2cc(C(F)(F)F)ccn2)o1)N1CCc2[nH]cnc2[C@@H]1c1nc2cc(F)ccc2o1` [Example 121, [(4R)-4-(5-fluoro-1,3-benzoxazol-2-yl)-1,4,6,7-tetrahydroimidazo[4,5-c]pyridin-5-yl]-[5-[4-(trifluoromethyl)-2-pyridyl]-1,3,4-oxadiazol-2-yl]methanone] it is 1000 to 5000 nM. With `O=C(c1nnc(-c2ccccn2)o1)N1CCc2[nH]cnc2[C@@H]1c1nc2ccccc2o1` [Example 584, (R)-(4-(benzo[d]oxazol-2-yl)-6,7-dihydro-1H-imidazo[4,5-c]pyridin-5(4H)-yl)(5-(pyridin-2-yl)-1,3,4-oxadiazol-2-yl)methanone], the AC50 (A375 R408W cells) is 1000 to 5000 nM. `CC1(C)CN(C(=O)c2ocnc2C(F)F)C(c2nc3cc(F)ccc3o2)c2nc[nH]c21` (centres unmarked): the half-maximal activity concentration (AC50) under setting [1] was at least 5000 nM.

Turning to `O=C(c1cnn2cc(Br)ccc12)N1CCc2[nH]cnc2[C@H]1c1nc2cc(F)ccc2o1` [Example 69, (S)-(6-bromopyrazolo[1,5-a]pyridin-3-yl)(4-(5-fluorobenzo[d]oxazol-2-yl)-6,7-dihydro-1H-imidazo[4,5-c]pyridin-5(4H)-yl)methanone], the AC50 (A375 R408W cells) was 500 to 1000 nM. On the same count and under the same terms, as for `O=C(c1ocnc1C(F)F)N1CCc2[nH]cnc2[C@@H]1c1nc2c(Cl)cccc2o1` [Example 438, [(4R)-4-(4-chloro-1,3-benzoxazol-2-yl)-1,4,6,7-tetrahydroimidazo[4,5-c]pyridin-5-yl]-[4-(difluoromethyl)oxazol-5-yl]methanone], the figure is at most 500 nM; as for `O=C(c1ocnc1C(F)F)N1CCc2[nH]cnc2[C@@H]1c1nc2cc(C(F)(F)F)ccc2o1` [Example 330, (R)-(4-(difluoromethyl)oxazol-5-yl)(4-(5-(trifluoromethyl)benzo[d]oxazol-2-yl)-6,7-dihydro-1H-imidazo[4,5-c]pyridin-5(4H)-yl)methanone], at most 500 nM. Turning to `Cn1cc(-c2nc(C(F)F)c(C(=O)N3CCc4[nH]cnc4[C@@H]3c3nc4cc(F)ccc4o3)o2)cn1` [Example 87, (R)-(4-(difluoromethyl)-2-(1-methyl-1H-pyrazol-4-yl)oxazol-5-yl)(4-(5-fluorobenzo[d]oxazol-2-yl)-6,7-dihydro-1H-imidazo[4,5-c]pyridin-5(4H)-yl)methanone], the AC50 (A375 R408W cells) was 1000 to 5000 nM. With `O=C(CCc1cncs1)N1CCc2[nH]cnc2C1c1nc2ccc(F)cc2o1` (centres unmarked), the AC50 under setting [1] was 1000 to 5000 nM. `O=C(c1oc(-c2cccnc2)nc1C(F)F)N1CCc2[nH]cnc2[C@H]1c1nc2cccc(F)c2o1` [Example 590, (S)-(4-(difluoromethyl)-2-(pyridin-3-yl)oxazol-5-yl)(4-(7-fluorobenzo[d]oxazol-2-yl)-6,7-dihydro-1H-imidazo[4,5-c]pyridin-5(4H)-yl)methanone]: the concentration at half-maximal activity (AC50) (A375 R408W cells) was at most 500 nM. In the case of `O=C(c1ocnc1CF)N1CCc2[nH]cnc2[C@H]1c1nc2cc(F)ccc2o1` [Example 179, (S)-(4-(5-fluorobenzo[d]oxazol-2-yl)-6,7-dihydro-1H-imidazo[4,5-c]pyridin-5(4H)-yl)(4-(fluoromethyl)oxazol-5-yl)methanone], the AC50 (A375 R408W cells) was 500 to 1000 nM. The same measure, in the same setting: the figure for `CC(C)(O)c1nc(C(F)F)c(C(=O)N2CCc3[nH]cnc3[C@@H]2c2nc3c(OC(F)(F)F)cccc3o2)o1` [Example 534, (R)-(4-(difluoromethyl)-2-(2-hydroxypropan-2-yl)oxazol-5-yl)(4-(4-(trifluoromethoxy)benzo[d]oxazol-2-yl)-6,7-dihydro-1H-imidazo[4,5-c]pyridin-5(4H)-yl)methanone] is at most 500 nM. On to `Cn1cc(-c2nnc(C(=O)N3CCc4[nH]cnc4[C@@H]3c3nc4cc(F)ccc4o3)o2)cn1` [Example 68, (R)-(4-(5-fluorobenzo[d]oxazol-2-yl)-6,7-dihydro-1H-imidazo[4,5-c]pyridin-5(4H)-yl)(5-(1-methyl-1H-pyrazol-4-yl)-1,3,4-oxadiazol-2-yl)methanone], for which, where the note is “A375 R408W cells”, the AC50 fell in the range of 1000 to 5000 nM.

In the case of `O=C(c1ocnc1C(F)(F)F)N1CCc2[nH]cnc2[C@H]1c1nc2ccccc2o1` [Example 797, (S)-(4-(benzo[d]oxazol-2-yl)-6,7-dihydro-1H-imidazo[4,5-c]pyridin-5(4H)-yl)(4-(trifluoromethyl)oxazol-5-yl)methanone], the concentration at half-maximal activity (AC50) (A375 R408W cells) was at most 500 nM.

In general, AC50 refers to the concentration giving half of the maximal activity seen.
